This is an account of results in patent publication US12679836B2, “4H-pyrrolo[3,2-c]pyridin-4-one compounds” (Bayer Aktiengesellschaft, priority 2019, dated 2026).

Where two headings read alike, the source gives them in different places.

Assay [1] deals with T1, EGFR with insertion of SVD between D770 and N771 (EGFR ins SVD) (Homo sapiens, UniProt P00533, DUP768-770).
T1 construct: made in house; host or cells: Sf9 insect cells (baculovirus)
Briefly: Exon20-Mutant-EGFR(D770_N771insSVD) kinase assay (TR-FRET). As to conditions: 2 mM ATP, several values per example where printed. The format is biochemical.

In a further assay the target is Ba/F3-EGFR-WT cells (Homo sapiens, UniProt P00533). Briefly: Ba/F3 cell survival assay (Cell Titer-Glo), WT EGFR. In kind it is cell-based. As to conditions: without IL-3, with 10 ng/mL EGF, 48 h; read-out: BA/F3 (wild type) IC50. A digest of the protocol: (§1)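 Ba/F3 cells stably expressing WT EGFR or EGFR-insSVD from retroviral transduction were grown without IL-3 on 10 ng/mL EGF. Cells were plated at 4000 cells/well, treated with compound for 48 h at 37° C, and viability was read by CellTiter-Glo luminescence.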
Background: Cellular ATP, detected with luciferase, serves as a proxy for viable cell number.

In the next assay the target is T2, Bub1 (Homo sapiens, UniProt O43683).
T2 construct: catalytic domain of human Bub1 (amino acids 704-1085); His6 (N); made in house; host or cells: Hi5 insect cells
Briefly: Bub1 TR-FRET high ATP kinase assay. The format is biochemical. Conditions: 2 mM ATP. A digest of the protocol: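 Recombinant His6-tagged human Bub1 catalytic domain (aa 704-1085), from Hi5 insect cells, phosphorylating a biotinylated peptide substrate at high ATP concentration. TR-FRET read-out.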

Another assay addresses Ba/F3-EGFR-insSVD cells (Homo sapiens, UniProt P00533, DUP768-770, cells depend on it). Briefly: Ba/F3 cell survival assay (Cell Titer-Glo), EGFR-insSVD. The format is cell-based. Conditions: without IL-3, with 10 ng/mL EGF, 48 h; read-out: BA/F3 (insSVD) IC50. The essentials: as §1
The mark [2] stands for this setting: Bub1 high ATP (2 mM) IC50 [mol/l].
Setting [3] is: read-out: Bub1 high ATP (2 mM) IC50 [mol/l].

Sequence of Ba/F3-EGFR-insSVD cells (P00533 with tags, fused parts or gaps DUP768-770): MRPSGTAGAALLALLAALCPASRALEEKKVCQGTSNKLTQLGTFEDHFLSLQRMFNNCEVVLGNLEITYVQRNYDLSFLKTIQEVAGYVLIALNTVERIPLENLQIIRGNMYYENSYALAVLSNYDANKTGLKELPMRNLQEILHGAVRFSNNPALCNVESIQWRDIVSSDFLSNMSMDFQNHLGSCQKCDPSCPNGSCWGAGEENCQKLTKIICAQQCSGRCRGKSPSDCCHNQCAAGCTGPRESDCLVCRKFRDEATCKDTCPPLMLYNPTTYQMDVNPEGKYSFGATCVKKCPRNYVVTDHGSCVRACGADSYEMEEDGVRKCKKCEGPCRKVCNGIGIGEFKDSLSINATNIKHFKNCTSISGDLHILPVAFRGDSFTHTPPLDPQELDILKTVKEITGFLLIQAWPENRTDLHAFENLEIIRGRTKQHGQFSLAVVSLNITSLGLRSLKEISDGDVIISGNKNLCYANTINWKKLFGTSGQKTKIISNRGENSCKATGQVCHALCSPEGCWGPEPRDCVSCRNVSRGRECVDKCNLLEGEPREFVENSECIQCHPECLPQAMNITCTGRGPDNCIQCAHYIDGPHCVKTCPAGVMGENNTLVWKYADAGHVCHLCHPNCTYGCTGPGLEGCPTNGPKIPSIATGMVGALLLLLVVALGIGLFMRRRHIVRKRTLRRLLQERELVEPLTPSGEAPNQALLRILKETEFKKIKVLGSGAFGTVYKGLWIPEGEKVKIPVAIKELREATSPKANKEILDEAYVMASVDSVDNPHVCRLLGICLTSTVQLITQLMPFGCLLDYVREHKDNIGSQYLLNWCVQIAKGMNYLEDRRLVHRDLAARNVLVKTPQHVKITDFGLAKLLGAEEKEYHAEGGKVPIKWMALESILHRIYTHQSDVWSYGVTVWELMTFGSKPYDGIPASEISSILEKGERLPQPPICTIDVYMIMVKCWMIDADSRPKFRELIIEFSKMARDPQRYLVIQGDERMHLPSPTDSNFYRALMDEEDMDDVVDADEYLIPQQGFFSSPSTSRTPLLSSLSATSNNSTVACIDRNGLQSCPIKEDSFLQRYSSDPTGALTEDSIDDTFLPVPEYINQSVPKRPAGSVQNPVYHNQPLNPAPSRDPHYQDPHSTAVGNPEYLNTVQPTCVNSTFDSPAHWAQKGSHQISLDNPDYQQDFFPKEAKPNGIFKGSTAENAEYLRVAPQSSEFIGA
Sequence of Ba/F3-EGFR-WT cells (P00533 whole entry, stated change not applied): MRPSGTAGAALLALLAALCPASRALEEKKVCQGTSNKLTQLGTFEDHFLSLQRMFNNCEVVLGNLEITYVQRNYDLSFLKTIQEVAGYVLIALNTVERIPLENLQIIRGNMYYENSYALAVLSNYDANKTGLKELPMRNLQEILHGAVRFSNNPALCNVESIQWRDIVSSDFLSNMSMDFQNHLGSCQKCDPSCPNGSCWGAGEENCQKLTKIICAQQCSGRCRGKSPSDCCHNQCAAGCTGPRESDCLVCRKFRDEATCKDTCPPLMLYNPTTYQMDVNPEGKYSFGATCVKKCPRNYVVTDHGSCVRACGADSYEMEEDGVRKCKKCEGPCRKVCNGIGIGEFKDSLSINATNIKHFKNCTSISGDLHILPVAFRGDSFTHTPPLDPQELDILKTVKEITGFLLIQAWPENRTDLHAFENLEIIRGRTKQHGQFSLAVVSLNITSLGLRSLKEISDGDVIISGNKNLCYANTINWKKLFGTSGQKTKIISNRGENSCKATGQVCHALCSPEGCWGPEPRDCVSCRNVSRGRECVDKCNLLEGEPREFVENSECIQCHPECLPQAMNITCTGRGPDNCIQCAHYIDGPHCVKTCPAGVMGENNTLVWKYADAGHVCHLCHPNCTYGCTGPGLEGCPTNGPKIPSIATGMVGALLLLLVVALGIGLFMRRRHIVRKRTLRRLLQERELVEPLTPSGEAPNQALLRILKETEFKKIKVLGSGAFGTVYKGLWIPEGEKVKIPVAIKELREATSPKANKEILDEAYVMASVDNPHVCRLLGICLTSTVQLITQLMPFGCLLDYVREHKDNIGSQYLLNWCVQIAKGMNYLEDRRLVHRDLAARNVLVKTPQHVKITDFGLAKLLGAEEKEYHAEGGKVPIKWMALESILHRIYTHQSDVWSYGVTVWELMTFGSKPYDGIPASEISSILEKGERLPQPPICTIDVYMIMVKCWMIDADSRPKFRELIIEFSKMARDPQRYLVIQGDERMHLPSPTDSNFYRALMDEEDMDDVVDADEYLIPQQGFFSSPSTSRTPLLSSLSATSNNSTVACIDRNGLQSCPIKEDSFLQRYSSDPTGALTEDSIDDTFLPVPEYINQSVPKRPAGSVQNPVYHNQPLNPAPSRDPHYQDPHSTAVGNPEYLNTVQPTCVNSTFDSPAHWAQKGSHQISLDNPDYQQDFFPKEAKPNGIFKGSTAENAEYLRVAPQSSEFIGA
T1 sequence (P00533 with tags, fused parts or gaps DUP768-770): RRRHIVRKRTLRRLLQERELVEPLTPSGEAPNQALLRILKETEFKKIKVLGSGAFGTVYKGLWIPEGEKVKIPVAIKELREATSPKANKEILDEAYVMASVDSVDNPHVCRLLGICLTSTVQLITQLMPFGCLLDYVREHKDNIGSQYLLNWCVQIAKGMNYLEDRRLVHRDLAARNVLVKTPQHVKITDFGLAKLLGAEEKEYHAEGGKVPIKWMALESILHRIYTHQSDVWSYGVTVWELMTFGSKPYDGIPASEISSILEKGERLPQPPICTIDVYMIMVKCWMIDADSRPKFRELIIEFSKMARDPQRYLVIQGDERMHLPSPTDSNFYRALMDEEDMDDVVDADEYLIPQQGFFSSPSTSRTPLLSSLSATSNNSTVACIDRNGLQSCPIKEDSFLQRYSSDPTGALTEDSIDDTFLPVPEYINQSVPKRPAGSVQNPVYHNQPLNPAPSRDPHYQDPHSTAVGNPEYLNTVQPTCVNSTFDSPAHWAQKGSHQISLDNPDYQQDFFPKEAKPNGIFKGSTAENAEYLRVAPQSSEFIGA
T2 sequence (O43683 704-1085): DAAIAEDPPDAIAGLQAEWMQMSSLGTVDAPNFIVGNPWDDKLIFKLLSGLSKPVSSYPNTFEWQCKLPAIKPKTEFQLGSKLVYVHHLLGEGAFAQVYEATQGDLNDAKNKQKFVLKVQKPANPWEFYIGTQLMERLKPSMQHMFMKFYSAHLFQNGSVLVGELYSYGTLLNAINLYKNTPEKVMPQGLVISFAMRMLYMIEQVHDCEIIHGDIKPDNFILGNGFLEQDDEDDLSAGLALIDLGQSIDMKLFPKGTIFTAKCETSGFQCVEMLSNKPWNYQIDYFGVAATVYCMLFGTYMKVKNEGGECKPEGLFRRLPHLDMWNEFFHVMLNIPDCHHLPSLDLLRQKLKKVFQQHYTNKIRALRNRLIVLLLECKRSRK

`COc1c(Cl)cc(F)cc1Nc1c(-c2ccncc2OCC2COCCO2)[nH]c2c1C(=O)NCC2` (centres unmarked) [Example 19, 3-(3-chloro-5-fluoro-2-methoxyanilino)-2-(3-{[1,4-dioxan-2-yl]methoxy}pyridin-4-yl)-1,5,6,7-tetrahydro-4H-pyrrolo[3,2-c]pyridin-4-one]: the “mutEGFR (D770_N771insSVD) kinase assay IC50” value (shortened to “mutEGFR”) in assay [1] turned out to be 0.113 nM. The GI50 is 532 nM at Ba/F3-EGFR-WT cells and 29.1 nM at Ba/F3-EGFR-insSVD cells. The same compound showed an IC50 against Bub1 (setting [2]) of 11400 nM.
For `COc1c(Cl)cccc1Nc1c(-c2ccncc2O[C@H](C)C2COCCO2)[nH]c2c1C(=O)NCC2` (single isomer, unassigned) [Example 60], in that order: 0.305 nM, 946 nM, 52.7 nM and 16400 nM.
As for `Cc1c(F)cccc1Nc1c(-c2ccncc2OCC2COC(C)(C)CO2)[nH]c2c1C(=O)NCC2` (centres unmarked) [Example 38, 2-[3-[(5,5-dimethyl-1,4-dioxan-2-yl)methoxy]-4-pyridyl]-3-(3-fluoro-2-methyl-anilino)-1,5,6,7-tetrahydropyrrolo[3,2-c]pyridin-4-one], the “mutEGFR” value in assay [1] was 0.119 nM. Further, the figures for the GI50 on Ba/F3-EGFR-WT cells and at Ba/F3-EGFR-insSVD cells were 419 nM and 29.3 nM, respectively. The compound further displayed an IC50 against Bub1 (setting [2]) above 5710 nM.
On the same counts, the results for `CCc1c(F)cccc1Nc1c(-c2ccncc2OCC2COC(C)(C)CO2)[nH]c2c1C(=O)NCC2` (single isomer, unassigned) [Example 69, 2-(3-{[5,5-dimethyl-1,4-dioxan-2-yl]methoxy}pyridin-4-yl)-3-(2-ethyl-3-fluoroanilino)-1,5,6,7-tetrahydro-4H-pyrrolo[3,2-c]pyridin-4-one] are 0.233 nM, 312 nM, 7.17 nM and above 20000 nM.
For `COc1c(F)cccc1Nc1c(-c2ccncc2OCCC2COCCO2)[nH]c2c1C(=O)NCC2` (single isomer, unassigned) [Example 35, 2-(3-{2-[1,4-dioxan-2-yl]ethoxy}pyridin-4-yl)-3-(3-fluoro-2-methoxyanilino)-1,5,6,7-tetrahydro-4H-pyrrolo[3,2-c]pyridin-4-one], in that order: 0.0873 nM, 261 nM, 21.5 nM and above 20000 nM.
On to `CCc1c(F)cccc1Nc1c(-c2ccncc2OCC2COC(C)(C)CO2)[nH]c2c1C(=O)NCC2` (single isomer, unassigned) [Example 70, 2-(3-{[5,5-dimethyl-1,4-dioxan-2-yl]methoxy}pyridin-4-yl)-3-(2-ethyl-3-fluoroanilino)-1,5,6,7-tetrahydro-4H-pyrrolo[3,2-c]pyridin-4-one], for which the “mutEGFR” value in assay [1] was found to be 0.168 nM. The GI50 on Ba/F3-EGFR-WT cells stood at 714 nM; at Ba/F3-EGFR-insSVD cells, 67.9 nM. Further, on Bub1 (setting [3]), the IC50 was above 20000 nM.
On the same counts, the results for `COc1c(Cl)cccc1Nc1c(-c2ccncc2OC(C)C2CN(C)CCO2)[nH]c2c1C(=O)NCC2` (single isomer, unassigned) [Example 73, 3-(3-chloro-2-methoxyanilino)-2-[3-({1-[4-methylmorpholin-2-yl]ethyl}oxy)pyridin-4-yl]-1,5,6,7-tetrahydro-4H-pyrrolo[3,2-c]pyridin-4-one] are 1.12 nM, 1280 nM, 78 nM and above 20000 nM.
As for `COc1c(Cl)cccc1Nc1c(-c2ccncc2O[C@@H](C)C2COCCO2)[nH]c2c1C(=O)NCC2` (mixture of isomers) [Example 57, 3-(3-chloro-2-methoxyanilino)-2-{3-[(1S)-1-(1,4-dioxan-2-yl)ethoxy]pyridin-4-yl}-1,5,6,7-tetrahydro-4H-pyrrolo[3,2-c]pyridin-4-one], in assay [1], the “mutEGFR” value worked out at 0.269 nM. In addition, the GI50 on Ba/F3-EGFR-WT cells came to 539 nM; at Ba/F3-EGFR-insSVD cells it was 28 nM. Moreover, the IC50 against Bub1 (setting [2]) came to 14000 nM.
`COc1c(F)cccc1Nc1c(-c2ccncc2OC[C@@H]2CN(CC(F)F)CCO2)[nH]c2c1C(=O)NCC2` [Example 22, 2-(3-{[(2S)-4-(2,2-difluoroethyl)morpholin-2-yl]methoxy}pyridin-4-yl)-3-(3-fluoro-2-methoxyanilino)-1,5,6,7-tetrahydro-4H-pyrrolo[3,2-c]pyridin-4-one]: in assay [1], the “mutEGFR” value came to 0.153 nM. The GI50 at Ba/F3-EGFR-WT cells came to 544 nM; at Ba/F3-EGFR-insSVD cells, 41.9 nM. On Bub1 (setting [2]), this compound yielded an IC50 above 20000 nM.
On the same counts, the results for `COc1c(Cl)cc(F)cc1Nc1c(-c2ccncc2OCC2CN(C)CCO2)[nH]c2c1C(=O)NCC2` (centres unmarked) [Example 18, 3-(3-chloro-5-fluoro-2-methoxyanilino)-2-(3-{[4-methylmorpholin-2-yl]methoxy}pyridin-4-yl)-1,5,6,7-tetrahydro-4H-pyrrolo[3,2-c]pyridin-4-one] are 0.147 nM, 579 nM, 27.9 nM and above 20000 nM.
On the same counts, the results for `COc1c(Cl)cccc1Nc1c(-c2ccncc2OC(C)C2CN(C)CCO2)[nH]c2c1C(=O)NCC2` (centres unmarked) [Example 71, 3-(3-chloro-2-methoxyanilino)-2-[3-({1-[4-methylmorpholin-2-yl]ethyl}oxy)pyridin-4-yl]-1,5,6,7-tetrahydro-4H-pyrrolo[3,2-c]pyridin-4-one] are 0.405 nM, 1420 nM, 132 nM and above 20000 nM.
For the compound `COc1c(Cl)cccc1Nc1c(-c2ccncc2OCC2CN(C)CCO2)[nH]c2c1C(=O)NCC2` (single isomer, unassigned) [Example 16, 3-(3-chloro-2-methoxyanilino)-2-(3-{[4-methylmorpholin-2-yl]methoxy}pyridin-4-yl)-1,5,6,7-tetrahydro-4H-pyrrolo[3,2-c]pyridin-4-one], the “mutEGFR” value in assay [1] amounted to 0.228 nM. Further, the GI50 at Ba/F3-EGFR-WT cells amounted to 1050 nM; on Ba/F3-EGFR-insSVD cells, 126 nM. The compound also displayed an IC50 on Bub1 (setting [2]) above 20000 nM.
Turning to `O=C1NCCc2[nH]c(-c3ccncc3OCC3COCCO3)c(Nc3cccc(F)c3CC(F)F)c21` (centres unmarked) [Example 40, 3-[2-(2,2-difluoroethyl)-3-fluoro-anilino]-2-[3-(1,4-dioxan-2-ylmethoxy)-4-pyridyl]-1,5,6,7-tetrahydropyrrolo[3,2-c]pyridin-4-one], in assay [1], the “mutEGFR” value came out at 0.115 nM. Also, the GI50 at Ba/F3-EGFR-WT cells amounted to 867 nM; on Ba/F3-EGFR-insSVD cells, 119 nM. Also, the IC50 at Bub1 (setting [2]) amounted to 8620 nM.
Take `O=C1NCCc2[nH]c(-c3ccncc3OCC3COCCO3)c(Nc3cccc(Cl)c3Cl)c21` (single isomer, unassigned) [Example 9, 3-(2,3-Dichloroanilino)-2-{3-[(1,4-dioxan-2-yl)methoxy]pyridin-4-yl}-1,5,6,7-tetrahydro-4H-pyrrolo[3,2-c]pyridin-4-one]: the “mutEGFR” value in assay [1] is 0.0891 nM. In addition, the values for the GI50 at Ba/F3-EGFR-WT cells and on Ba/F3-EGFR-insSVD cells were 303 nM and 32.7 nM, respectively. Moreover, the IC50 at Bub1 (setting [2]) was 4230 nM.
